Experimental data from ChEMBL document CHEMBL4613264, “Design, Synthesis, and Biological Evaluation of New Peripheral 5HT2A Antagonists for Nonalcoholic Fatty Liver Disease” (J Med Chem, 2020).
One block for each compound: values may come before it. Calls of active or inactive are those of the source. The rule behind the calls is not given here.

What was measured:
[1] = biological target: T1, 5-hydroxytryptamine receptor 2A (Homo sapiens, UniProt P28223); assay: Antagonist activity at 5HT2A receptor (unknown origin) expressed in HEK293 cells assessed as inhibition of serotonin hydrochloride-induced calcium flux preincubated for 1 hr followed by serotonin hydrochloride addition by calcium 6 dye based FLIPR assay; format: functional, cell-based
[2] = Stability in human liver microsomes assessed as parent compound remaining measured after 30 mins; format: ADME, Microsome; conditions: read-out: Stability
in vitro = conditions: rat, liver microsomes
Description: Stability in rat liver microsomes assessed as parent compound remaining measured after 30 mins

Mus musculus [3] = assay: Protection against 10 week HFD-induced liver disease in C57BL/6J mouse assessed as reduction in hepatic triglyceride accumulation at 50 to 100 mg/kg, ip administered daily for 10 weeks and measured post last dose by H and E staining based histological analysis; format: functional, organism-based
Mus musculus [4] = assay: Protection against 10 week HFD-induced liver disease in C57BL/6J mouse assessed as reduction in brown adipose tissue fat mass at 50 to 100 mg/kg, ip administered daily for 10 weeks and measured post last dose by H and E staining based histological analysis; format: functional, organism-based
L929 = assay: Cytotoxicity against mouse L929 cells; format: cell-based
Mus musculus [5] = assay: Protection against 10 week HFD-induced liver disease in C57BL/6J mouse assessed as increase in lead body mass at 100 mg/kg, ip administered daily for 10 weeks and measured post last dose by NMR analysis; format: functional, organism-based
[6] = AUCt in Sprague-Dawley rat at 5 mg/kg, iv by LC-MS/MS analysis; format: ADME, organism-based; conditions: in vivo
[7] = biological target: 5-hydroxytryptamine receptor 7 (Homo sapiens) (UniProt P34969); assay: Antagonist activity at recombinant human 5HT7 receptor expressed in CHOK1 cells assessed as inhibition of serotonin-induced cAMP accumulation at 1 uM measured after 30 mins by HTRF assay relative to control; format: functional, cell-based; conditions: CHO-K1
Mus musculus [8] = assay: Protection against 10 week HFD-induced liver disease in C57BL/6J mouse assessed as reduction in epididymal white adipose tissue fat mass at 50 to 100 mg/kg, ip administered daily for 10 weeks and measured post last dose by H and E staining based histological analysis; format: functional, organism-based
HFL1 = assay: Cytotoxicity against human HFL1 cells; format: cell-based
[9] = biological target: T2, 5-hydroxytryptamine receptor 1A (Homo sapiens) (UniProt P08908); assay: Antagonist activity at human 5HT1A expressed in mouse BA/F3 cells assessed as inhibition of serotonin-induced cAMP accumulation at 1 uM by fluorescence assay relative to control; format: functional, cell-based; conditions: BaF3
T2 sequence (whole entry): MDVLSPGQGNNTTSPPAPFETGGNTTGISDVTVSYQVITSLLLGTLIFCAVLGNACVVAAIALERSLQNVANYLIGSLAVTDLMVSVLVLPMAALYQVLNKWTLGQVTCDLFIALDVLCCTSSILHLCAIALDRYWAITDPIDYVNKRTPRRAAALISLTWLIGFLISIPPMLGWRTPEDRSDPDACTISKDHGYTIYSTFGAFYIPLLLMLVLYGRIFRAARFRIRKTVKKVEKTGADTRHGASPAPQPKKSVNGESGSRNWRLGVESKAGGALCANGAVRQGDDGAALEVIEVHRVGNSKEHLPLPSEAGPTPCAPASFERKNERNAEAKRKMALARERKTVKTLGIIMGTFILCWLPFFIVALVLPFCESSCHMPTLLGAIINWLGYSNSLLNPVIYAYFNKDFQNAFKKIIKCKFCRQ

CHO-K1 = assay: Cytotoxicity against CHOK1 cells; format: cell-based; conditions: Cricetulus griseus
Mus musculus [10] = assay: Protection against 10 week HFD-induced liver disease in C57BL/6J mouse assessed as reduction in hepatic triglyceride accumulation at 50 to 100 mg/kg, ip administered daily for 10 weeks and measured post last dose by triglyceride reagent based colorimetric analysis; format: functional, organism-based
[11] = biological target: T3, 5-hydroxytryptamine receptor 3A (Homo sapiens) (UniProt P46098); assay: Antagonist activity at 5HT3 (unknown origin) at 1 uM relative to control
T3 sequence (whole entry): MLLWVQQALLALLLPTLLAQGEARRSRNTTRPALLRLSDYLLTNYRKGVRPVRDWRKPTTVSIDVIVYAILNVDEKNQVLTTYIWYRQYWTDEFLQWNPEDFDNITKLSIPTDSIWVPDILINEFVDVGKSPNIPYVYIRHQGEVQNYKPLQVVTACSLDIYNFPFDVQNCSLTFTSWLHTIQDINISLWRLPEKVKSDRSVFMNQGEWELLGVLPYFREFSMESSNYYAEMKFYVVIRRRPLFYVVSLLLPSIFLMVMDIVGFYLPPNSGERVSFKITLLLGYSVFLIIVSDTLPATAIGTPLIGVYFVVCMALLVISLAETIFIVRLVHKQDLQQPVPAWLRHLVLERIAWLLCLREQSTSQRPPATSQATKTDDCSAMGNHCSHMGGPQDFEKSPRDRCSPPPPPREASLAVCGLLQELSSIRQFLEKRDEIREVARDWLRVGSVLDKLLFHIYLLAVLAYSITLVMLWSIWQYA

[12] = AUC (infinity) in Sprague-Dawley rat at 5 mg/kg, iv by LC-MS/MS analysis; format: ADME, organism-based; parameters: dose 5 mg/kg, time infinity, route intravenous; conditions: in vivo
Mus musculus [13] = assay: Protection against 10 week HFD-induced liver disease in C57BL/6J mouse assessed as reduction in body fat accumulation at 100 mg/kg, ip administered daily for 10 weeks and measured post last dose by NMR analysis; format: functional, organism-based
Mus musculus [14] = assay: Protection against 10 week HFD-induced liver disease in C57BL/6J mouse assessed as reduction in body weight gain at 100 mg/kg, ip administered daily for 10 weeks and measured post HFD stimulation; format: functional, organism-based
[15] = Plasma concentration in ICR mouse at 5 mg/kg, iv measured after 0.5 hrs by LC-MS/MS analysis; format: ADME, organism-based
[16] = Clearance in Sprague-Dawley rat at 5 mg/kg, iv by LC-MS/MS analysis; format: ADME, organism-based; conditions: in vivo
[17] = Half life in Sprague-Dawley rat at 5 mg/kg, iv by LC-MS/MS analysis; format: ADME, organism-based; conditions: in vivo
Mus musculus [18] = assay: Protection against 10 week HFD-induced liver disease in C57BL/6J mouse assessed as reduction in crownlike structure appearance in epididymal white adipose tissue at 50 to 100 mg/kg, ip administered daily for 10 weeks and measured post last dose by H and E staining based histological analysis; format: functional, organism-based
hERG (KCNH2) = hERG (KCNH2) (Homo sapiens, UniProt Q12809); assay: Inhibition of human ERG at 10 uM relative to control
[19] = biological target: T4, 5-hydroxytryptamine receptor 2C (Homo sapiens) (UniProt P28335); assay: Antagonist activity at recombinant human 5HT2C receptor expressed in HEK293 cells assessed as inhibition of serotonin-induced inositol phosphate accumulation at 1 uM measured after 30 mins by HTRF assay relative to control; format: functional, cell-based
T4 sequence (whole entry): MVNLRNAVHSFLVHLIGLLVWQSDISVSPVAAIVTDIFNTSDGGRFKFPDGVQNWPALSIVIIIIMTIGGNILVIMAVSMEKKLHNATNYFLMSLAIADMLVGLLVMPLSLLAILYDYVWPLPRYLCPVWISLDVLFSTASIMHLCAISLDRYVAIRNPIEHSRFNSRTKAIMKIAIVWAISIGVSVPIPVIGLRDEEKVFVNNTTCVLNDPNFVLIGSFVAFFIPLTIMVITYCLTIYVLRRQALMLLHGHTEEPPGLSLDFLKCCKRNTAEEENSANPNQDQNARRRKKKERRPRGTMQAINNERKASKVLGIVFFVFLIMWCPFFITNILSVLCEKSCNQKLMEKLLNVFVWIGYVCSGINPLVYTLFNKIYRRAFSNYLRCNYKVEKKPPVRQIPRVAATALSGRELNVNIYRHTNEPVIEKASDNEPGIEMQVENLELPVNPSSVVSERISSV

[20] = biological target: T1, 5-hydroxytryptamine receptor 2A; assay: Antagonist activity at recombinant human full-length 5HT2A receptor expressed in CHOK1 cells assessed as inhibition of serotonin-induced inositol phosphate accumulation at 1 uM measured after 30 mins by TR-FRET assay relative to control; format: functional, cell-based; conditions: CHO-K1
Mus musculus [21] = assay: Protection against 10 week HFD-induced liver disease in C57BL/6J mouse assessed as reduction in liver weight at 50 to 100 mg/kg, ip administered daily for 10 weeks and measured post last dose; format: functional, organism-based
[22] = Drug level in ICR mouse brain at 5 mg/kg, iv measured after 0.5 hrs by LC-MS/MS analysis; format: ADME, organism-based; conditions: read-out: Drug uptake
Vero = assay: Cytotoxicity against African green monkey Vero cells; format: cell-based; conditions: Chlorocebus sabaeus
Mus musculus [23] = assay: Protection against 10 week HFD-induced liver disease in C57BL/6J mouse assessed as reduction in inguinal white adipose tissue fat mass at 50 to 100 mg/kg, ip administered daily for 10 weeks and measured post last dose by H and E staining based histological analysis; format: functional, organism-based
Mus musculus [24] = assay: Protection against 10 week HFD-induced liver disease in C57BL/6J mouse assessed as reduction in adipocyte size of inguinal white adipose tissue at 50 to 100 mg/kg, ip administered daily for 10 weeks and measured post last dose by H and E staining based histological analysis; format: functional, organism-based
[25] = biological target: 5-hydroxytryptamine receptor 2B (Homo sapiens) (UniProt P41595); assay: Antagonist activity at recombinant human full-length 5HT2B receptor expressed in CHOK1 cells assessed as inhibition of serotonin-induced inositol phosphate accumulation at 1 uM measured after 30 mins by TR-FRET assay relative to control; format: functional, cell-based; conditions: CHO-K1
NIH3T3 = assay: Cytotoxicity against mouse NIH/3T3 cells; format: cell-based
[26] = Ratio of drug level in brain to plasma of ICR mouse at 5 mg/kg, iv measured after 0.5 hrs by LC-MS/MS analysis; format: ADME, organism-based; conditions: read-out: BPR
[27] = biological target: 5-hydroxytryptamine receptor 1B (Homo sapiens) (UniProt P28222); assay: Antagonist activity at recombinant human 5HT1B expressed in human HeLa cells assessed as inhibition of serotonin-induced cAMP accumulation at 1 uM measured after 5 mins by TR-FRET assay relative to control; format: functional, cell-based
Mus musculus [28] = assay: Protection against 10 week HFD-induced liver disease in C57BL/6J mouse assessed as reduction in blood glucose level at 100 mg/kg, ip administered daily for 10 weeks and measured 9 weeks post HFD stimulation by IPGTT; format: functional, organism-based
[29] = Volume of distribution at steady state in Sprague-Dawley rat at 5 mg/kg, iv by LC-MS/MS analysis; format: ADME, organism-based; conditions: in vivo, read-out: Vdss

T1 sequence (P28223 whole entry): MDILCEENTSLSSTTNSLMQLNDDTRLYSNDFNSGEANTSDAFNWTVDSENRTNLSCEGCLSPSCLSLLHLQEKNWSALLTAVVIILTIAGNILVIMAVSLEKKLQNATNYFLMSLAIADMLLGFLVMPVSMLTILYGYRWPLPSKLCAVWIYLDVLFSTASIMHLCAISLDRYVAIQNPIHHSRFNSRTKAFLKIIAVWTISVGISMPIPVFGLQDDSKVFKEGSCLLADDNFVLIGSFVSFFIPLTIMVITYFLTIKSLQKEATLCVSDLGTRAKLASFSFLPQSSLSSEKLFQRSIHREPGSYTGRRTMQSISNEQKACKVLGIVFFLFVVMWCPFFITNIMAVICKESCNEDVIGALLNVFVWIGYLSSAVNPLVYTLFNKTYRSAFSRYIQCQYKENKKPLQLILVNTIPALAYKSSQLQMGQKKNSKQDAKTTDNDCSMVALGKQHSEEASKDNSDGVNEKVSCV
hERG (KCNH2), sequence (Q12809 whole entry): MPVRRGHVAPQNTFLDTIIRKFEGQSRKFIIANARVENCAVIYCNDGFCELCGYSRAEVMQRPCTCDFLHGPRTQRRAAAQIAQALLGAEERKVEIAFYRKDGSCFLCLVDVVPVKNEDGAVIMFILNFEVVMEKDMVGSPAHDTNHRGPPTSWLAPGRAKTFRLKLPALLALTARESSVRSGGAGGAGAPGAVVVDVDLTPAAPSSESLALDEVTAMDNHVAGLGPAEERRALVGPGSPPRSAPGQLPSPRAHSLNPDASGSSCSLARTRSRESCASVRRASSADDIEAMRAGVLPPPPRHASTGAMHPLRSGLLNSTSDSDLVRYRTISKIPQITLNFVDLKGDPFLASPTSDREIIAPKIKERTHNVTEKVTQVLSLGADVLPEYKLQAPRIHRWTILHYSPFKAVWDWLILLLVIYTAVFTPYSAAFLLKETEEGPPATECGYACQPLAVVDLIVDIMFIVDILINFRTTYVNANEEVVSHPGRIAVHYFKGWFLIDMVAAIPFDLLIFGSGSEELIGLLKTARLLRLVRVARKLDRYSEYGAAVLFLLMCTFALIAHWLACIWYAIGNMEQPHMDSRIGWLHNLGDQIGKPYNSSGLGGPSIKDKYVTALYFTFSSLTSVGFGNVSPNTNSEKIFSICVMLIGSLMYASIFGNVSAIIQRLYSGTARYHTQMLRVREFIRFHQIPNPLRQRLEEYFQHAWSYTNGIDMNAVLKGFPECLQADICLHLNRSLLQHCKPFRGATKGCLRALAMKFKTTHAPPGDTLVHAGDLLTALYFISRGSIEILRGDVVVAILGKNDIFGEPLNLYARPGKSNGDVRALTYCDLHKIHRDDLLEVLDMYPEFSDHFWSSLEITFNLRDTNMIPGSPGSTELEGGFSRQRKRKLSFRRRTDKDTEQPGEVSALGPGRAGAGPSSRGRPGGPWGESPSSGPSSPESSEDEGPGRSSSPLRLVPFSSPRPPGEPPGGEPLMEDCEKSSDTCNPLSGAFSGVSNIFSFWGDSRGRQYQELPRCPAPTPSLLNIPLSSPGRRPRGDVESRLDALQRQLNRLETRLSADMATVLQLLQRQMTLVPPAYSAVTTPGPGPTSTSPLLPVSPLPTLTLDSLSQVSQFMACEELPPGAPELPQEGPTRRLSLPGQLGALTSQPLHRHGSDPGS
5-hydroxytryptamine receptor 2B (Homo sapiens), sequence (P41595 whole entry): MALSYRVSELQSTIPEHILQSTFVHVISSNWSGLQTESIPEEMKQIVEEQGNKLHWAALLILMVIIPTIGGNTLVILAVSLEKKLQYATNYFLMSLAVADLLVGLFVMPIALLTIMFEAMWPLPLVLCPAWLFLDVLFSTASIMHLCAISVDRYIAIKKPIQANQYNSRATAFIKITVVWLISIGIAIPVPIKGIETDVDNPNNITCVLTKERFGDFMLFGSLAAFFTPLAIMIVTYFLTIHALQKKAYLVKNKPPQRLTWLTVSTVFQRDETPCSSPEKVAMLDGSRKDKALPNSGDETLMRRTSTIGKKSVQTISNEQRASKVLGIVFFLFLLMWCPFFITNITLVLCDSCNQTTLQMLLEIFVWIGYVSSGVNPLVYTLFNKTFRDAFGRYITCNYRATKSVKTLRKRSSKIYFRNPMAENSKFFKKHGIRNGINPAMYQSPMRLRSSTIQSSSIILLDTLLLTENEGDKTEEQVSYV
5-hydroxytryptamine receptor 7 (Homo sapiens), sequence (P34969 whole entry): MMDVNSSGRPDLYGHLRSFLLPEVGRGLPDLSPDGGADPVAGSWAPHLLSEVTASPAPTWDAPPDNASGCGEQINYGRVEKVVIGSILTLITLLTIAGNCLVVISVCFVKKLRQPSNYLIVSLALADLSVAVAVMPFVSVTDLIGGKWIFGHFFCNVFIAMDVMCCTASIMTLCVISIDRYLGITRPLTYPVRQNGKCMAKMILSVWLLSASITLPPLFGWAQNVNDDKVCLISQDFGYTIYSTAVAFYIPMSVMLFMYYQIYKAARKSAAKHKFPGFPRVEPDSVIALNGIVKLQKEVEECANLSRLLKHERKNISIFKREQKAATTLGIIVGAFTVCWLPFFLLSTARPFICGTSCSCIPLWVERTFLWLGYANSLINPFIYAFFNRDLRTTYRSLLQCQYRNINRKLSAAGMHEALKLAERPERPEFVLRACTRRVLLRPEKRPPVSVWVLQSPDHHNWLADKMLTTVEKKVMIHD
5-hydroxytryptamine receptor 1B (Homo sapiens), sequence (P28222 whole entry): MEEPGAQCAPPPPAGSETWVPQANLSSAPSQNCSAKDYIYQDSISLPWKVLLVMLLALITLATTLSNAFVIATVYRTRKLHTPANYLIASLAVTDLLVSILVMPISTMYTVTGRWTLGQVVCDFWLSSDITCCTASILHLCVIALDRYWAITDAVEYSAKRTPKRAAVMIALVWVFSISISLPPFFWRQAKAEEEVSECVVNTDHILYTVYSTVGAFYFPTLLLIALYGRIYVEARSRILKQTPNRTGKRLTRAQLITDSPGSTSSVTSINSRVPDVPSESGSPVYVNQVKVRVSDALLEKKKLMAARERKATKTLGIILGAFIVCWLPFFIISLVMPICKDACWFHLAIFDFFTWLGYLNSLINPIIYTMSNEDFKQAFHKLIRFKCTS

Compound: CC(C)COc1ccc(CNC(=O)N(Cc2ccc(F)cc2)C2CCN(C(=S)NC(C)C)CC2)cc1
IC50 [1]: 1.13 µM

Compound: CC(C)COc1ccc(CNC(=O)N(Cc2ccc(F)cc2)C2CCN(S(C)(=O)=O)CC2)cc1
IC50 [1]: 2.02 µM

Compound: O=C1CC2(CCCC2)CC(=O)N1CCCCN1CCN(c2ncccn2)CC1 [BUSPIRONE]
remaining at 0.5 h [2]: 4%
remaining at 0.5 h (in vitro): 15%

The remaining compounds from weak to strong by IC50 [1], led by results:

AUC(0-t) [6]: 1910 ng·h/mL
inhibition [7]: 6.3%
remaining at 0.5 h [2]: 89%
inhibition [9]: -2.8%
remaining at 0.5 h (in vitro): 84%
inhibition [11]: -5%
AUC(0-inf) [12]: 2030 ng·h/mL
concentration at 0.5 h [15]: 416 ng/mL
clearance [16]: 41 mL/min/kg
half-life [17]: 16.9 h
inhibition [19]: 63.8%
inhibition [20]: 93%
IC50 [1]: 0.00835 µM
concentration at 0.5 h [22]: 15.1 ng/g
inhibition [25]: 7%
Kp at 0.5 h [26]: 0.038
inhibition [27]: 6%
Vd [29]: 11 L/kg
Compound: CC(C)COc1ccc(CNC(=O)N(Cc2ccc(F)cc2)C2CCN(C(=O)CC[C@H](N)C(=O)O)CC2)cc1
Activity (Mus musculus [3]): Active
Activity (Mus musculus [4]): Active
IC50 (L929): 64 µM
Activity (Mus musculus [5]): Active
Activity (Mus musculus [8]): Active
IC50 (HFL1): 55.2 µM
IC50 (CHO-K1): 51 µM
Activity (Mus musculus [10]): Active
Activity (Mus musculus [13]): Active
Activity (Mus musculus [14]): Active
Activity (Mus musculus [18]): Active
inhibition at 10 µM (hERG (KCNH2)): 18.7%
Activity (Mus musculus [21]): Active
IC50 (Vero): 54.7 µM
Activity (Mus musculus [23]): Active
Activity (Mus musculus [24]): Active
IC50 (NIH3T3): 18.2 µM
Activity (Mus musculus [28]): Active

IC50 [1]: 0.00194 µM
Compound: CN1CCC(N(Cc2ccc(F)cc2)C(=O)NCc2ccc(OCC(O)CN3CCN(C(=O)OC(C)(C)C)CC3)cc2)CC1 (configuration not stated)

IC50 [1]: 0.0006 µM
Compound: CC(C)COc1ccc(CNC(=O)N(Cc2ccc(F)cc2)C2CCNCC2)cc1
